Test results: PMC3013619 (Cell host & microbe, 2009)

The molecules below were run against T1, TgAPT (apicoplast phosphate translocator), TgAPT-N (Toxoplasma gondii, UniProt A7U554) (assay: […]-Pi uptake into proteoliposomes, competitive inhibition). Conditions: competitive with Pi; apparent; pH 7.6; reconstituted solubilized yeast membranes.
T1 sequence (A7U554 1-352): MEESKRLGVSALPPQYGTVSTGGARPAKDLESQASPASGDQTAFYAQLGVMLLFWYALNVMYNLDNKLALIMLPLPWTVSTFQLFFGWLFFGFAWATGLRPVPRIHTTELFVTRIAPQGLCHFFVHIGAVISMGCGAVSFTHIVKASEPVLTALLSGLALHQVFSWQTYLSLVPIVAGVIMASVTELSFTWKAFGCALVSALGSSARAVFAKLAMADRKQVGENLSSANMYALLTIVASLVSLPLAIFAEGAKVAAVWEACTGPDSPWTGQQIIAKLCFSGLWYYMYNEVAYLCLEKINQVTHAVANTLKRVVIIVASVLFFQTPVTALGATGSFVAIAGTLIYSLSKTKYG
Assay type: biochemical
For O=C(O)[C@H](O)COP(=O)(O)O [3-PGA], the “Kinetic constant ^d / TgAPT” value was 1.33 ± 0.49 mM.
With triose phosphate the “Kinetic constant ^d / TgAPT” value was 1.63 ± 0.26 mM.
With C=C(OP(=O)(O)O)C(=O)O [PEP] the “Kinetic constant ^d / TgAPT” value was 1.65 ± 0.52 mM.
